In the experiment the test system is spores of Aspergillus niger and Aspergillus versicolor. In words: ISO 846 Method B: determination of the fungistatic activity of films, complete nutrient medium with carbon source. The format is cell-based. The conditions noted are these: summary of ISO 846 loading tests (methods A and B). How it is done: Commercially conventional dispersions based on poly(vinyl alcohol)-stabilized poly(dibutyl maleinate-co-vinyl acetate) were, where necessary, set to the required pH using 10% strength sodium hydroxide solution and subsequently finished with fungicide. In addition, to the dispersion was added either a 1% strength ethanolic solution of the fungicide or an aqueous suspension which had been prepared by weighing out exactly 500 mg of fungicide into a 50 ml measuring flask and subsequently making up to 50 ml with deionized water to the calibration mark. After addition, the substance was distributed well in the dispersion and approximately 200 μm thick films were produced using a drawing frame with wet application of 400 μm.
The action of these films on microorganisms was determined using the method ISO 846.
The samples were applied to a complete nutrient medium (with carbon source) and inoculated with a spore suspension of various fungi. […] Method B is intended to reflect the situation of a surface contamination of the sample in practice (such as dirt or organic deposits).
The inoculum in all the determinations was performed using spores of Aspergillus niger and Aspergillus versicolor.
The samples, after expiry of the incubation period of 28 days, were assessed in methods A and B using the following rating key in accordance with ISO 846 (a, b=individual results of duplicate determination).

The values that follow come from patent US20080139650A1, “Fungicidally Active Polymer Dispersions And Use Thereof” (CELANESE EMULSIONS GMBH, priority 2004, published 2008).

In the case of `Oc1ccc(/C=C/c2cc(O)cc(O)c2)cc1` [trans-resveratrol, trans-3,5,4′-trihydroxystilbene], the “fungicidal activity in polymer dispersions made into films” value is recorded as “exhibits fungicidal activity”.
